“Also recorded” adds a separate entry of the source.
What was measured:
[1] = Cytotoxicity in non-infected SH-SY5Y cells; type: cell-based; details: human, SH-SY5Y neuroblastoma cells, 50% cytotoxic concentration
Experimental: (§1) Assessment of the antiviral activity against ZIKV in VeroE6 cells (African green monkey kidney cells; Vero 76, clone E6; ATCC: Cat# CRL-1586) was done as previously described.[35] The antiviral assays in the neuroblastoma SH-SY5Y cells (CRL-2266; ATCC) were conducted as follows: SH-SY5Y cells were seeded in assay medium (MEM supplemented with 2% fetal bovine serum, 2 mM L-glutamine and 0.075% sodium bicarbonate; all from Thermo Fisher Scientific) at a density of 15 000 cells/well in 96-well plates. Cells were incubated overnight at 37 °C and 5% CO2. The next day, a serial dilution of the compounds was added to the cells, followed by inoculation of the cells with ZIKV MR766 (MOI = 0.01). Following a 7-day incubation at 37 °C and 5% CO2, ZIKV-induced cytopathic effect was determined by means of the MTS readout method, analogous to the assay with the VeroE6 cells.[35] The 50% effective concentration (the compound concentration that is required to inhibit virus-induced CPE by 50%; EC50) and the 50% cytotoxic concentration (i.e. the compound concentration that is required to inhibit the cell growth by 50%; CC50) was determined using logarithmic interpolation.

[2] = Cytotoxicity in non-infected VeroE6 cells; type: cell-based, African green monkey; details: African green monkey, non-infected, 50% cytotoxic concentration
Experimental: as §1

ZIKV MR766 = assay: Antiviral assay against ZIKV in SH-SY5Y cells (CPE, MTS readout); type: cell-based, zika virus; details: Zika virus, 168 h; SH-SY5Y cells; ZIKV MR766, MOI 0.01, 7-day incubation
Experimental: (§2) These compounds were next evaluated for their antiviral effect on ZIKV replication in Vero E6 and SH-SY5Y cells. 7-Deaza-2′-C-methyladenosine (7DMA), a viral polymerase inhibitor,[35] was included as a positive control.
Besides the standard assays in VeroE6 cells, the compounds were also tested in SH-SY5Y cells. […] Thus, they function as a relevant neuronal cell-based model of ZIKV infection.[38]
as §1

ZIKV = assay: Antiviral assay against ZIKV in VeroE6 cells (CPE, MTS readout); type: cell-based, zika virus; details: for EC50: Zika virus, Vero C1008, VeroE6 cells, concentration that protects 50% of the cells from virus-induced cytopathic effect; for Antiviral activity against ZIKV (in words): cell-based assay
Experimental: as §2, §1

ZIKV MTase = target: T1, ZIKV MTase (Zika virus, UniProt A0A024B7W1); assay: Filter binding assay (FBA), ZIKV 2′-O-MTase activity; type: biochemical; details: for inhibition at 50 µM: 2′-O-MTase activity, compound at 50 μM, read-out: Percentage of inhibition of ZIKV MTase; for Effect on 2′-O-MTase activity of ZIKV (in words): tested at 50 μM
T1 construct: the ZIKV NS5 MTase (aa 4-278) domain were synthesized (Genscript); His6 (N); made in house; host or cells: Escherichia coli T7 Express Iq
Experimental: (§3) The synthesized arylpurines were evaluated for their inhibitory activity against the 2′-O-MTase activity of ZIKV and DENV3 MTases by quantification of [^3H]-methyl transfer from the [^3H]-SAM on short synthetic capped RNA (GpppAC4), by using a filter binding assay (FBA).[13,33] The universal methyltransferase inhibitor sinefungin was included as a positive control (Table 1), whose IC50 value against ZIKV MTase has already been reported using a similar assay.[13] We assessed MTase inhibition by testing the synthesized compounds at a concentration of 50 μM.
(§4) Proteins were produced and purified as previously described.[13] Briefly, the coding sequence of ZIKV NS5 (aa 4-903) and the ZIKV NS5 MTase (aa 4-278) domain were synthesized (Genscript) based on the sequence of the ZIKV strain H/PF/2013 (GenBank accession no. KJ776791.2) and then cloned into a pQE30 (Qiagen) plasmid with an N-terminal His6 tag. The MTase domains (aa 4-278 and aa 1-264) were produced in Escherichia coli T7 Express Iq (New England BioLabs). Cells were grown in Terrific Broth at 37 °C until the optical density at 600 nm (OD600) reached 0.6. Protein expression was then induced by 0.5 mM IPTG (isopropyl-β-D-thiogalactopyranoside) at 17 °C overnight. Bacteria were harvested by centrifugation. The bacterial pellets from a 2-liter bacterial culture were resuspended in 100 ml lysis buffer (50 mM Tris–HCl [pH 8], 300 mM NaCl, 5% glycerol, 0.1% Triton, 10 μg per ml DNase I, 2 tablets of EDTA-free antiprotease cocktail [Roche], 0.25 mg per ml lysozyme). After 30 min of incubation at 4 °C, cells were sonicated and clarified by centrifugation prior to immobilized metal affinity chromatography (IMAC) purification on a 5-mL His prep column (GE Healthcare), with elution in 50 mM Tris–HCl, 300 mM NaCl, and 250 mM imidazole (pH 8.0). The eluted protein was then loaded on a 16/60 Superdex 200 (GE Healthcare) equilibrated in a mixture of 10 mM HEPES, 500 mM NaCl, glycerol 5%, and 1 mM dithiothreitol (DTT [pH 7.5]).
(§5) The FBA MTase assay was carried out in a reaction mixture [40 mM Tris–HCl (pH 8.0), 1 mM DTT, 1.9 μM SAM, and 0.1 μM ^3H-SAM (PerkinElmer)] in the presence of 0.7 μM GpppAC4 synthetic RNA and the MTase (500 nM), according to the method previously described.[39] Briefly, the MTase was first mixed with the compound suspended in DMSO (5% final DMSO) before the addition of RNA substrate and SAM and then incubated at 30 °C. Reactions mixtures were stopped after 30 min by their 10-fold dilution in ice-cold water. Samples were transferred to diethylaminoethyl (DEAE) filtermat (PerkinElmer) using a Filtermat Harvester (Packard Instruments). The RNA-retaining mats were washed twice with 10 mM ammonium formate pH 8.0, twice with water and once with ethanol. They were soaked with scintillation fluid (PerkinElmer), and ^3H-methyl transfer to the RNA substrates was determined using a Wallac MicroBeta TriLux liquid scintillation counter (PerkinElmer).

DENV3 MTase = target: T2, DENV3 MTase (Dengue virus type 3, UniProt P27915); assay: Filter binding assay (FBA), DENV3 2′-O-MTase activity; type: biochemical; details: for inhibition at 50 µM: 2′-O-MTase activity, compound at 50 μM, read-out: Percentage of inhibition of DENV3 MTase; for Effect on 2′-O-MTase activity of DENV3 (in words): tested at 50 μM
T2 construct: the MTase activity is located at the N-terminal of the viral NS5 protein; made in house
Experimental: as §3, §4, §5

[3] = Stability towards spontaneous cyclization in PBS : DMSO followed by HPLC; type: physicochemical; details: PBS : DMSO (95 : 5), HPLC over a 24-hour period
Experimental: Then, compound 28 was treated with TFA at 70 °C to remove the tert-butyl ester and the p-methoxybenzyl group. Analysis of the reaction by HPLC/MS after 1 h indicated a mixture of two compounds with m/z = 695 and m/z = 575, that might correspond to cyclized products with and without the p-methoxybenzyl group at position 6 (see Fig. S3 at the SI). […] In exploring alternative methods for removing the PMB group, we came across a report by Sako et al., which described the oxidative debenzylation of 6-N-benzyladenosines under neutral pH conditions.[32] Since our compounds are more lipophilic than the nucleosides described by […], we changed the PBS : CH3CN ratio from 2 : 1, as described, to 1 : 1 to favor the solubility of our compounds. Additionally, we used microwave irradiation to shorten the reaction times. Thus, treatment of 27 with […] in PBS : CH3CN (1 : 1) at 80 °C for 45 min under MW irradiation led to the removal of the p-methoxybenzyl group, as detected by HPLC/MS. Further treatment of the reaction product with piperidine afforded 29 (25% yield over the 2 steps). A similar reaction sequence applied to 28 led to compound 30 (21% yield). […] Finally, treatment of 29 and 30 with TFA in DCM at rt afforded compounds 31 and 32 in 73% and 62% yields, respectively. To rule out the possibility of spontaneous cyclization following removal of both protecting groups from the amino acid, compounds 21, 31 and 32 were dissolved in a PBS : DMSO (95 : 5) mixture.

T1 sequence (A0A024B7W1 2524-2798): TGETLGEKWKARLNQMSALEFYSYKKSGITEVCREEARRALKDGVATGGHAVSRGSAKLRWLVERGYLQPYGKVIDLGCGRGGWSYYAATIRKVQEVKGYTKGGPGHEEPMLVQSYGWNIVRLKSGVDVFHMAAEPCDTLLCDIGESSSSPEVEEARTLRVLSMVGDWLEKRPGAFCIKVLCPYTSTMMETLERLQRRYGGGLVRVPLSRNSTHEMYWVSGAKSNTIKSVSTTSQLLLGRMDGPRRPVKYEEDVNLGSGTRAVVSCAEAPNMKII
T2 sequence (P27915 2492-2753): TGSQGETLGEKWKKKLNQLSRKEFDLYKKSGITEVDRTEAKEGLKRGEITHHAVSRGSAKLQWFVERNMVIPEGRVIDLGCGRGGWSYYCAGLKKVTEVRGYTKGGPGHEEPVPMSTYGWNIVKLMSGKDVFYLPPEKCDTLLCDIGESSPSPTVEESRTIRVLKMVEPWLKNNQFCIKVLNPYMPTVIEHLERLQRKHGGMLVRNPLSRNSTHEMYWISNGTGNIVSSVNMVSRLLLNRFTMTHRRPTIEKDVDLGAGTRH

| SMILES | CC50 at 7 days [1] [µM] | CC50 [2] [µM] | EC50 (ZIKV MR766) [µM] | EC50 (ZIKV) [µM] | inhibition at 50 µM (ZIKV MTase) [%] | Effect on 2′-O-MTase activity of ZIKV (in words) (ZIKV MTase) | inhibition at 50 µM (DENV3 MTase) [%] | Effect on 2′-O-MTase activity of DENV3 (in words) (DENV3 MTase) | Stability (no spontaneous cyclization) [3] | Antiviral activity against ZIKV (in words) (ZIKV) |
| --- | --- | --- | --- | --- | --- | --- | --- | --- | --- | --- |
| C[C@@]1(O)[C@H](O)[C@@H](CO)O[C@H]1n1ccc2c(N)ncnc21 [Compound 7DMA, 7-Deaza-2′-C-methyladenosine, reference compound] | > 50 | > 200 | 33.7 ± 5.1 | 9 ± 0.2 |  |  |  |  |  |  |
| CC(C)(C)CCN(CC[C@H](N)C(=O)O)c1cccc(-n2cnc3c(N)ncnc32)c1 [Compound 10, (S)-2-Amino-4-((3-(6-amino-9H-purin-9-yl)phenyl)(3,3-dimethylbutyl)amino)butanoic acid] | > 100 | > 100 | > 100 | > 100 | 0 | no effect | 0 | no effect |  |  |
| Cc1ncnc2c1ccn2-c1cccc(N(CC[C@H](N)C(=O)O)CCC(C)(C)C)c1 [Compound 14, (S)-2-Amino-4-((3,3-dimethylbutyl)(3-(4-methyl-7H-pyrrolo[2,3-d]pyrimidin-7-yl)phenyl)amino)butanoic acid] | > 100 | > 100 | > 100 | > 100 | 0 | no effect | 0 | no effect |  |  |
| Cc1ncnc2c1ccn2-c1cccc(N(CC[C@H](NC(=O)OC(C)(C)C)C(N)=O)CCC(C)(C)C)c1 [Compound 17, tert-Butyl (S)-(1-amino-4-((3,3-dimethylbutyl)(3-(4-methyl-7H-pyrrolo[2,3-d]pyrimidin-7-yl)phenyl)amino)-1-oxobutan-2-yl)carbamate] | 7 | 22.8 ± 0.5 | > 100 | > 100 | 11.1 | modest inhibition | 7.2 | modest inhibition |  |  |
| Cc1ncnc2c1ccn2-c1cccc(NC(=O)C[C@H](N)C(=O)OC(C)(C)C)c1 [Compound 20, tert-Butyl N^4-(3-(4-methyl-7H-pyrrolo[2,3-d]pyrimidin-7-yl)phenyl)-L-asparaginate] | > 100 | > 33 | > 100 | > 100 | 0 | no effect | 0 | no effect |  |  |
| Cc1ncnc2c1ccn2-c1cccc(NC(=O)C[C@H](N)C(=O)O)c1 [Compound 21, N ^4-(3-(4-Methyl-7H-pyrrolo[2,3-d]pyrimidin-7-yl)phenyl)-L-asparagine] | > 100 | > 100 | > 100 | > 100 | 0 | no effect | 0 | no effect | remained intact |  |
| CC(C)(C)OC(=O)[C@@H](N)CC(=O)Nc1cccc(-n2cnc3c(N)ncnc32)c1 [Compound 29, tert-Butyl N^4-(3-(6-amino-9H-purin-9-yl)phenyl)-L-asparaginate] | > 100 | > 100 | > 100 | > 100 | ~20 | inhibited; also recorded: some inhibition | ~20 | some inhibition |  | no antiviral activity |
| COc1ccc(NC(=O)C[C@H](N)C(=O)OC(C)(C)C)cc1-n1cnc2c(N)ncnc21 [Compound 30, tert-Butyl N^4-(3-(6-amino-9H-purin-9-yl)-4-methoxyphenyl)-L-asparaginate] | > 100 | > 100 | > 100 | > 100 | 0 | no effect | 0 | no effect |  |  |
| Nc1ncnc2c1ncn2-c1cccc(NC(=O)C[C@H](N)C(=O)O)c1 [Compound 31, N ^4-(3-(6-Amino-9H-purin-9-yl)phenyl)-L-asparagine] | > 100 | > 100 | > 100 | > 100 | ~20 | inhibited; also recorded: some inhibition | ~20 | some inhibition | remained intact | no antiviral activity |
| COc1ccc(NC(=O)C[C@H](N)C(=O)O)cc1-n1cnc2c(N)ncnc21 [Compound 32, N ^4-(3-(6-Amino-9H-purin-9-yl)-4-methoxyphenyl)-L-asparagine] | > 100 | > 100 | > 100 | > 100 | 0 | no effect | 0 | no effect | remained intact |  |

Reference: PMC12501849, “Design, synthesis and evaluation of arylpurine-based sinefungin mimetics as zika virus methyltransferase inhibitors” (RSC Advances, 2025)
